# Reference: patent US10035840B2, “Targeted coagulation factors and method of using the same” (Bayer HealthCare LLC, priority 2008, dated 2018)
# Positions of bridges follow the written chain, without caps; N, C: chain ends. Non-standard residues stand in square brackets, D forms with d. Residues, ends and D or L forms follow the SMILES beside them. Groups on a side chain read outwards from the residue. *: point of attachment. FITC = O=C1OC2(c3ccc(O)cc3Oc3cc(O)ccc32)c2ccc(NC(=S)*)cc21; Propanoyl(3-maleimido) = O=C1C=CC(=O)N1CCC(=O)*; hArg = N=C(N)NCCCC[C@H](N)C(=O)O; Ahx = NCCCCCC(=O)O; Mpa = O=C(O)CCS
# Target: T1, GPIIb-IIIa (Homo sapiens, UniProt P05106+P08514)
# T1 construct: purchased Innovative Research, Novi, Mich
# T1 sequence (P08514 32-887 limits assumed): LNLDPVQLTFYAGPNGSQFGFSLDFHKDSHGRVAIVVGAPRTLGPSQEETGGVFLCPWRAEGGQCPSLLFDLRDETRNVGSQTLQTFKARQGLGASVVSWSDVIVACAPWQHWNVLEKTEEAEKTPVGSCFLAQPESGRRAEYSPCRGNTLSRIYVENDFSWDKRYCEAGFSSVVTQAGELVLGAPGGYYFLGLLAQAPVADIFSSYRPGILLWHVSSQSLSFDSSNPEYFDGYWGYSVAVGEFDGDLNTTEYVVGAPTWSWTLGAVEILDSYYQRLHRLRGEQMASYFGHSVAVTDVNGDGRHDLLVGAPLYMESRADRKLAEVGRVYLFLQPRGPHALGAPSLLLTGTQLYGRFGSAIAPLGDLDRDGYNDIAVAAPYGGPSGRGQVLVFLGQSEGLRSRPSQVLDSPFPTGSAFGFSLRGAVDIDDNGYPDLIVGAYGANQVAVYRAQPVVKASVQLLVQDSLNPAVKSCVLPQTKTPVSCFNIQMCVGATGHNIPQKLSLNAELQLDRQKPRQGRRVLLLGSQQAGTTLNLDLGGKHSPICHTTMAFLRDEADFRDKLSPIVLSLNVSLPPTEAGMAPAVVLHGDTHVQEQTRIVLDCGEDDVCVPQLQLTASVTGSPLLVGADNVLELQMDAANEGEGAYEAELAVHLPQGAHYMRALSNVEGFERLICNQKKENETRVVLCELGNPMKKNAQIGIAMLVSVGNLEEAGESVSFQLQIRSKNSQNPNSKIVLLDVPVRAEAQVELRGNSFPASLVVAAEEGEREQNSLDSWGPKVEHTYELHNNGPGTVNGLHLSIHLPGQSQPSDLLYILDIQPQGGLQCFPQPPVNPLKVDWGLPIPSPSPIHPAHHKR
# T1 sequence (P05106 27-788): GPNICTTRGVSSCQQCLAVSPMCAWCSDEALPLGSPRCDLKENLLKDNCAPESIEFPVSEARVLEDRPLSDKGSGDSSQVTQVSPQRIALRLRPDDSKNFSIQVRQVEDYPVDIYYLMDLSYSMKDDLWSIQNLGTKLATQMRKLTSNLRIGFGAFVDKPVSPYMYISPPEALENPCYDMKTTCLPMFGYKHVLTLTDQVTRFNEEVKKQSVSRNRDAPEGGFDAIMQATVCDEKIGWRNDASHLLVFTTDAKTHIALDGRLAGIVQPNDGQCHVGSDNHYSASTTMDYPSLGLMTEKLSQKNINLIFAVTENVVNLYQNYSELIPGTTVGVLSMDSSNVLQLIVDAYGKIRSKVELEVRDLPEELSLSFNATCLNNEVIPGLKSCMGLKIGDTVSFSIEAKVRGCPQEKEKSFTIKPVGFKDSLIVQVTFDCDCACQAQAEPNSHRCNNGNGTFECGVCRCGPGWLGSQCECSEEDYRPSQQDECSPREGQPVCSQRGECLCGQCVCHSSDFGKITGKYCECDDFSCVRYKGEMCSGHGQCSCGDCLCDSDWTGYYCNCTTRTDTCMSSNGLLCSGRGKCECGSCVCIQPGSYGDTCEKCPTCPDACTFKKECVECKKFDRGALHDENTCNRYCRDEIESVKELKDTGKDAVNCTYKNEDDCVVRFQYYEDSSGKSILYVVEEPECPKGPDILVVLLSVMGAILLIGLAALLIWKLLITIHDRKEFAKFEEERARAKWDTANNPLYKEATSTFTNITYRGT
# Assay: Solid phase binding assay: competition of fibrinogen binding to immobilized GPIIb-IIIa
# Description: Peptide binding to GPIIb-IIIa was measured using a solid phase binding assay in which competition of fibrinogen binding by testing compounds is measured. The assay was performed as follows. Purified GPIIb-IIIa (Innovative Research, Novi, Mich.) was coated onto 96-well Immulon-B plates at […]×2 μg/mL, diluted in Buffer A (20 mM Tris pH 7.5, 0.15 M NaCl, and 1 mM each of MgCl2, CaCl2, and MnCl2). After overnight incubation at 4° C., the plate was blocked for 1 hour at 30° C., with 3.5% BSA in Buffer B (50 mM Tris pH 7.5, 0.1 M NaCl, and 1 mM each of MgCl2, CaCl2, and MnCl2). After washing 3 times with Buffer B, diluted peptide or protein solutions were combined with 3.5 nM biotinylated fibrinogen in 0.1% BSA/Buffer B and added to the wells, incubating at 30° C. for 2 hr. After washing (3 times, Buffer B), 1:4000 streptavidin-horseradish peroxidase (HRP) was added (Pierce Chemical Co., Rockford, Ill.) for 1 hour at 30° C. After a final washing step (3 times, Buffer B), the plate was developed with Ultra TMB (3,3′,5,5′-tetramentylbenzidine) (Pierce Chemical Co., Rockford, Ill.) for 5 minutes, stopping with an equal volume of 2 M sulfuric acid. Plate absorbances were read at 450 nm, and IC50 values determined using a 4-parameter logistic fit.
smiles,measurement,setting,value
N=C(N)NCCCC[C@@H]1NC(=O)CCSSC[C@@H](C(=O)N[C@@H](CCCCNC(=O)CCCCCNC(=O)CCN2C(=O)C=CC2=O)C(N)=O)NC(=O)[C@@H]2CCCN2C(=O)[C@H](Cc2c[nH]c3ccccc23)NC(=O)[C@H](CC(=O)O)NC(=O)CNC1=O [BHRF-1] ([Mpa][hArg]GDWPCK([Ahx-Propanoyl(3-maleimido)])-NH2; disulfide 1-7),"Blocking of fibrinogen binding to immobilized GPIIb-IIIa, in words",,potently blocked
N=C(N)NCCCC[C@@H]1NC(=O)CCSSC[C@@H](C(=O)N[C@@H](CCCCNC(=O)CCCCCNC(=O)CCN2C(=O)C=CC2=O)C(=O)N[C@@H](CCCCNC(=S)Nc2ccc3c(c2)C(=O)OC32c3ccc(O)cc3Oc3cc(O)ccc32)C(N)=O)NC(=O)[C@@H]2CCCN2C(=O)[C@H](Cc2c[nH]c3ccccc23)NC(=O)[C@H](CC(=O)O)NC(=O)CNC1=O [BHRF-3] ([Mpa][hArg]GDWPCK([Ahx-Propanoyl(3-maleimido)])K(FITC)-NH2; disulfide 1-7),"Blocking of fibrinogen binding to immobilized GPIIb-IIIa, in words",,potently blocked
"N=C(N)NCCCC[C@@H]1NC(=O)CCSSC[C@@H](C(N)=O)NC(=O)[C@@H]2CCCN2C(=O)[C@H](Cc2c[nH]c3ccccc23)NC(=O)[C@H](CC(=O)O)NC(=O)CNC1=O [Integrelin, reference compound] ([Mpa][hArg]GDWPC-NH2; disulfide 1-7)",IC50,"3.5 nM biotinylated fibrinogen, mean +/- spread, N in separate column or in text, read-out: IC50, inhibition of fibrinogen binding to immobilized GPIIb/IIIa",1.3 nM
